As a reminder, the pIC50 is the IC50 on a negative log10 scale, so that one unit is a factor of ten. A higher pIC50 goes with a small IC50.

pIC50: −log10 of the molar value. “And” between values parts separate entries of the source, which are not always exact repeats. Equal entries are not always repeated.

The text below walks through data of BindingDB's records for patent US20250313563 (The Broad Institute, 2025).

For experiment [1], the target named is Glycogen synthase kinase-3 alpha (Homo sapiens, UniProt P49840). The experiment can be described thus: TR-FRET Assay. A digest of the protocol:
(§1)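 Compound was preincubated 30 min in assay buffer before the kinase reaction, which was quenched with EDTA. Phosphorylation was detected by TR-FRET after adding a solution of 40 nM streptavidin-d2 and 2 nM Tb-labelled anti-pSer641 antibody.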
On the technique in general: In TR-FRET formats the signal depends on donor and acceptor labels being close together.

The target of experiment [2] is Glycogen synthase kinase-3 beta (Homo sapiens, UniProt P49841). The experiment is described as follows: TR-FRET Assay. A digest of the protocol:
as §1

Sequence of Glycogen synthase kinase-3 alpha (P49840 whole entry): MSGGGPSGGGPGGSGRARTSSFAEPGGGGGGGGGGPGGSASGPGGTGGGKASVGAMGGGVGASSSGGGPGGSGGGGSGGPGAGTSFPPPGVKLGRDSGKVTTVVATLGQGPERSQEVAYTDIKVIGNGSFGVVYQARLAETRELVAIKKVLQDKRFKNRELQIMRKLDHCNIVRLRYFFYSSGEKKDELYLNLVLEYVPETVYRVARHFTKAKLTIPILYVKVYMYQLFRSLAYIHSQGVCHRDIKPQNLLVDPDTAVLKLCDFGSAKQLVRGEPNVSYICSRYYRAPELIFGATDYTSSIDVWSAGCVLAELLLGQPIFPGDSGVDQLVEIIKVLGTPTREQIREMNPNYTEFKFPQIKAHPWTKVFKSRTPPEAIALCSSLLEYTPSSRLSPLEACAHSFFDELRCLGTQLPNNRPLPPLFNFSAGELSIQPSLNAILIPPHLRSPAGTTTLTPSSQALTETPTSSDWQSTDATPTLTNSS
Sequence of Glycogen synthase kinase-3 beta (P49841 whole entry): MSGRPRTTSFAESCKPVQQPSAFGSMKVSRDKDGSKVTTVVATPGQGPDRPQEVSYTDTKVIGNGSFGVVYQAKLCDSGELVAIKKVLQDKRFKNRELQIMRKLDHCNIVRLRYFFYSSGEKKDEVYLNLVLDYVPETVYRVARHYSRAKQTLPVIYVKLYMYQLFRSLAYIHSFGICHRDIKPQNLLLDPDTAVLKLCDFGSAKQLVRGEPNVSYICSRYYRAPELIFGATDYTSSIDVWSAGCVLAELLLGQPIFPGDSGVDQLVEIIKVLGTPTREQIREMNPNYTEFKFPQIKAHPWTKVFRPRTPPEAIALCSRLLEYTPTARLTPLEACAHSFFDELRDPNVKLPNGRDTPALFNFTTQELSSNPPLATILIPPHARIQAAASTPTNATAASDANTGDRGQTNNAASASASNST

With `CC(=O)N1CC2(C1)CC1(CO2)C2=C(N=NC2)NC2=C1C(=O)CC(C)(C)C2` (centres undefined) [US20250313563, Compound 913058], the pIC50 is > 7.00 in experiment [1]; > 7.00 and 6.00 to 7.00 in experiment [2].
On to `CCC1(c2cccc(N(C)c3cccc(OC)n3)c2)C2=CN=NC2NC2=C1C(=O)CC(C)(C)C2` (centres undefined) [US20250313563, Compound 913121], for which the negative-log IC50 (pIC50) in experiment [1] is > 7.00; in experiment [2], 6.00 to 7.00.
As to `CCC1(c2cccc(N(C)c3cccc(C(F)(F)F)n3)c2)C2=CN=NC2NC2=C1C(=O)CC(C)(C)C2` (centres undefined) [US20250313563, Compound 913122], the pIC50 in experiment [1] and in experiment [2] was 6.00 to 7.00 in each case.
In the case of `CCC1(c2cccc(S(=O)(=O)c3ccccc3)c2)C2=CN=NC2NC2=C1C(=O)CC(C)(C)C2` (centres undefined) [US20250313563, Compound 913123], the negative logarithm of the IC50 (pIC50) is > 7.00 in experiment [1]; > 7.00 and 6.00 to 7.00 in experiment [2].
For `CCC1(c2cc(N(C)C(C)=O)ccc2F)C2=CN=NC2NC2=C1C(=O)CC(C)(C)C2` (centres undefined) [US20250313563, Compound 913124], the pIC50 in experiment [1] and in experiment [2] was 6.00 to 7.00 each time.
Take `CCC1(c2cccc(N(C)C(=O)CN3CCCC3)c2)C2=CN=NC2NC2=C1C(=O)CC(C)(C)C2` (centres undefined) [US20250313563, Compound 913125]: the figures for the pIC50 in experiment [1] and in experiment [2] were > 7.00 and 6.00 to 7.00, respectively.
In the case of `CC1(C)CC(=O)C2=C(C1)NC1=C(CN=N1)C21CCCSCC1` (centres undefined) [US20250313563, Compound 913126], the pIC50 in experiment [1] was > 7.00; in experiment [2], 6.00 to 7.00.
Take `CC1(C)CC(=O)C2=C(C1)NC1=C(CN=N1)C21CCN(S(=O)(=O)C2CCOCC2)CC1` [US20250313563, Compound 913127]: the negative logarithm of the IC50 (pIC50) is > 7.00 in experiment [1]; > 7.00 and 6.00 to 7.00 in experiment [2].
On to `CC1(C)CC(=O)C2=C(C1)NC1=C(CN=N1)C21CCN(S(=O)(=O)C2CCCCC2)CC1` [US20250313563, Compound 913128], for which the pIC50 in experiment [1] is > 7.00; in experiment [2], > 7.00 and 6.00 to 7.00.
`CC(C)S(=O)(=O)N1CCC2(CC1)C1=C(N=NC1)NC1=C2C(=O)CC(C)(C)C1` [US20250313563, Compound 913129]: the pIC50 in experiment [1] was > 7.00; in experiment [2], > 7.00 and 6.00 to 7.00.
Regarding `CC[C@]1(c2cccc(S(=O)(=O)C(C)C)c2)C2=CN=NC2NC2=C1C(=O)CC(C)(C)C2` (some centres undefined) [US20250313563, Compound 913134], the pIC50 in experiment [1] is 6.00 to 7.00; in experiment [2], 5.30 to 6.00.
As for `Cc1cccc2c1CC[C@@]21C2=C(N=NC2)NC2=C1C(=O)CC(C)(C)C2` [US20250313563, Compound 913136], the values for the pIC50 in experiment [1] and in experiment [2] were > 7.00 and 6.00 to 7.00, respectively.
With `Cc1cccc2c1CC[C@]21C2=C(N=NC2)NC2=C1C(=O)CC(C)(C)C2` [US20250313563, Compound 913137], the pIC50 in experiment [1] and in experiment [2] was < 5.30 each time.
With `CC1(C)CC(=O)C2=C(C1)NC1=C(CN=N1)[C@]21C[C@@]2(CCN(CC(F)(F)F)C2)C1` [US20250313563, Compound 913138], the pIC50 in experiment [1] and in experiment [2] was 6.00 to 7.00 each time.
Regarding `CC1(C)CC(=O)C2=C(C1)NC1=C(CN=N1)[C@]21C[C@@]2(CCN(CC(F)F)C2)C1` [US20250313563, Compound 913139], the pIC50 in experiment [1] and in experiment [2] was 6.00 to 7.00 each time.
In the case of `CC[C@]1(c2cccc(N3CCC3(C)C)c2)C2=CN=NC2NC2=C1C(=O)CC(C)(C)C2` (some centres undefined) [US20250313563, Compound 913140], the values for the pIC50 in experiment [1] and in experiment [2] were > 7.00 and 6.00 to 7.00, respectively.
As for `CC[C@@]1(c2cccc(N3CCC3(C)C)c2)C2=CN=NC2NC2=C1C(=O)CC(C)(C)C2` (some centres undefined) [US20250313563, Compound 913141], the negative logarithm of the IC50 (pIC50) was 6.00 to 7.00 in experiment [1] and 5.30 to 6.00 in experiment [2].
For the molecule `CCC1(c2cccc(C(F)(F)F)c2)C2=C(N=NC2)NC2=C1C(=O)NC2` (centres undefined) [US20250313563, Compound 913156], the pIC50 is 6.00 to 7.00 in experiment [1] and < 5.30 in experiment [2].
With `CCC1(c2cccc(C(C)(C)F)c2)C2=CN=NC2NC2=C1C(=O)N(C)CC2` (centres undefined) [US20250313563, Compound 913178], the pIC50 in experiment [1] was 6.00 to 7.00; in experiment [2], 5.30 to 6.00.
In the same order, the values of `CC1(C)CC(=O)C2=C(C1)NC1=C(CN=N1)[C@]21CO[C@H](C2CC2)C1` [US20250313563, Compound 913184] are 6.00 to 7.00 and 5.30 to 6.00.
Turning to `CCC1(c2cccc(C(F)(F)F)c2)C2=C(N=NC2)NC2=C1C(=O)N(C)C2(C)C` (centres undefined) [US20250313563, Compound 913198], the values for the pIC50 in experiment [1] and in experiment [2] were > 7.00 and 6.00 to 7.00, respectively.
In the same order, the values of `CC[C@@H]1C[C@]2(CO1)C1=C(N=NC1)NC1=C2C(=O)CC(C)(C)C1` [US20250313563, Compound 913213] are 6.00 to 7.00 and 5.30 to 6.00.
With `CC[C@H]1C[C@]2(CO1)C1=C(N=NC1)NC1=C2C(=O)CC(C)(C)C1` [US20250313563, Compound 913214], the values for the negative logarithm of the IC50 (pIC50) in experiment [1] and in experiment [2] were 6.00 to 7.00 and 5.30 to 6.00, respectively.
As for `CC[C@@H]1C[C@@]2(CO1)C1=C(N=NC1)NC1=C2C(=O)CC(C)(C)C1` [US20250313563, Compound 913215], the pIC50 in experiment [1] was 6.00 to 7.00; in experiment [2] it was 5.30 to 6.00.
For the molecule `CC[C@H]1C[C@@]2(CO1)C1=C(N=NC1)NC1=C2C(=O)CC(C)(C)C1` [US20250313563, Compound 913216], the pIC50 in experiment [1] and in experiment [2] was 6.00 to 7.00 throughout.
With `CC1(C)CC(=O)C2=C(C1)NC1=C(CN=N1)C21CCCc2ccccc21` (centres undefined) [US20250313563, Compound 913219], the pIC50 in experiment [1] is > 7.00; in experiment [2], 6.00 to 7.00.
For the molecule `CC[C@]1(c2cccc(-c3cc(C)nc(C)c3)c2)C2=CN=NC2NC2=C1C(=O)CC(C)(C)C2` (some centres undefined) [US20250313563, Compound 913222], the results for the pIC50 in experiment [1] and in experiment [2] were > 7.00 and 6.00 to 7.00, respectively.
In the case of `CC[C@@]1(c2cccc(-c3cc(C)nc(C)c3)c2)C2=CN=NC2NC2=C1C(=O)CC(C)(C)C2` (some centres undefined) [US20250313563, Compound 913223], the pIC50 in experiment [1] and in experiment [2] was < 5.30 in each case.
As for `CCC1(c2cccc(Br)c2)C2=CN=NC2NC2=C1C(=O)NC(C)C2` (centres undefined) [US20250313563, Compound 913225], the pIC50 is 6.00 to 7.00 in experiment [1] and 5.30 to 6.00 in experiment [2].
The corresponding values for `CC1(C)CC(=O)C2=C(C1)NC1=C(CN=N1)C21CCN(S(=O)(=O)c2ccc3c(c2)CCO3)CC1` [US20250313563, Compound 913251] are > 7.00 and > 7.00.
Take `CCC1(c2cccc(N(C)c3ccc(OC)nc3)c2)C2=CN=NC2NC2=C1C(=O)CC(C)(C)C2` (centres undefined) [US20250313563, Compound 913252]: the pIC50 in experiment [1] and in experiment [2] was 6.00 to 7.00 in each case.
In the case of `CCC1(c2cccc(NS(C)(=O)=O)c2)C2=CN=NC2NC2=C1C(=O)CC(C)(C)C2` (centres undefined) [US20250313563, Compound 913253], the pIC50 in experiment [1] and in experiment [2] was > 7.00 throughout.
On to `CCC1(c2cccc(N(C)c3ccnc(C(F)(F)F)c3)c2)C2=CN=NC2NC2=C1C(=O)CC(C)(C)C2` (centres undefined) [US20250313563, Compound 913254], for which the pIC50 in experiment [1] and in experiment [2] was > 7.00 each time.
With `CCC1(c2cccc(N(C)c3cccc(C)n3)c2)C2=CN=NC2NC2=C1C(=O)CC(C)(C)C2` (centres undefined) [US20250313563, Compound 913255], the values for the pIC50 in experiment [1] and in experiment [2] were > 7.00 and 6.00 to 7.00, respectively.
Regarding `CCC1(c2cccc(N(C)c3cc(C)nc(C)c3)c2)C2=CN=NC2NC2=C1C(=O)CC(C)(C)C2` (centres undefined) [US20250313563, Compound 913256], the pIC50 in experiment [1] was 5.30 to 6.00; in experiment [2] it was < 5.30.
For `CCC1(c2cccc(S(=O)(=O)CC3CC3)c2)C2=CN=NC2NC2=C1C(=O)CC(C)(C)C2` (centres undefined) [US20250313563, Compound 913257], the pIC50 in experiment [1] and in experiment [2] was > 7.00 in each case.
Turning to `CCC1(c2cccc(S(=O)(=O)Cc3ccccc3)c2)C2=CN=NC2NC2=C1C(=O)CC(C)(C)C2` (centres undefined) [US20250313563, Compound 913258], the pIC50 in experiment [1] and in experiment [2] was > 7.00 each time.
Take `CC1(C)CC(=O)C2=C(C1)NC1=C(CN=N1)C21CN(S(=O)(=O)C2CC2)C1` [US20250313563, Compound 913259]: the pIC50 in experiment [1] and in experiment [2] was > 7.00 each time.
On to `Cn1ccc(S(=O)(=O)N2CC3(C2)C2=C(N=NC2)NC2=C3C(=O)CC(C)(C)C2)n1` [US20250313563, Compound 913260], for which the pIC50 in experiment [1] and in experiment [2] was > 7.00 each time.
In the case of `COc1ccccc1S(=O)(=O)N1CC2(C1)C1=C(N=NC1)NC1=C2C(=O)CC(C)(C)C1` [US20250313563, Compound 913261], the negative logarithm of the IC50 (pIC50) in experiment [1] and in experiment [2] was > 7.00 throughout.
Regarding `CC1(C)CC(=O)C2=C(C1)NC1=C(CN=N1)C21CN(S(=O)(=O)c2ccccn2)C1` [US20250313563, Compound 913262], the pIC50 in experiment [1] and in experiment [2] was > 7.00 in each case.
For `CC1(C)CC(=O)C2=C(C1)NC1=C(CN=N1)C21CN(S(=O)(=O)c2ccccc2F)C1` [US20250313563, Compound 913263], the pIC50 in experiment [1] and in experiment [2] was 6.00 to 7.00 each time.
`CN1CC2(C1)C1=C(N=NC1)NC1=C2C(=O)CC(C)(C)C1` [US20250313563, Compound 913264]: the pIC50 in experiment [1] and in experiment [2] was > 7.00 in each case.
Turning to `CC1(C)CC(=O)C2=C(C1)NC1=C(CN=N1)C21CN(S(=O)(=O)c2cccnc2)C1` [US20250313563, Compound 913265], the negative logarithm of the IC50 (pIC50) in experiment [1] and in experiment [2] was < 5.30 in each case.
For the molecule `CCC1(c2cccc(N(c3cccnc3)C3CC3)c2)C2=CN=NC2NC2=C1C(=O)CC(C)(C)C2` (centres undefined) [US20250313563, Compound 913274], the pIC50 in experiment [1] and in experiment [2] was > 7.00 in each case.
In the case of `CC[C@@]1(c2cccc(N(C)C(=O)c3cnn(C)c3)c2)C2=CN=NC2NC2=C1C(=O)CC(C)(C)C2` (some centres undefined) [US20250313563, Compound 913310], the pIC50 in experiment [1] and in experiment [2] was > 7.00 throughout.
On to `CCC1(c2cccc(Nc3ncccn3)c2)C2=CN=NC2NC2=C1C(=O)CC(C)(C)C2` (centres undefined) [US20250313563, Compound 913334], for which the values for the pIC50 in experiment [1] and in experiment [2] were > 7.00 and 6.00 to 7.00, respectively.
